Measurements published in patent US8216821B2, “Regulation of heterologous recombinant protein expression in methylotrophic and methanotrophic bacteria” (National Research Council of Canada, priority 2005, dated 2012).

Columns and labels:
M. extorquens (cymR2) = assay type: cell-based, Methylobacterium extorquens; conditions: cumate 1-30 μg/ml
Protocol: M. extorquens (ATCC 55366) was used for the preparation of the heterologous gene expression host. E. coli strain Top10 was used for cloning and propagation of recombinant DNA and S17-1λpir (recA, thi, pro, hsdR^−M^+ RP4:2-Tc:Mu:Km Tn7, pir lysogen; Sm^R, Tp^R) was used for propagation of the helper plasmid (23). E. coli was cultured in Luria Bertani broth (LB) at 37° C. Strain of M. extorquens was grown in CHOI medium, as previously described (17) and 1% (v/v) methanol was used as sole carbon source. Both media were solidified by 1.8% agar (Difco) when appropriate. Antibiotics were used for E. coli and M. extorquens at the following concentrations (in ug/ml): ampicillin, 100; kanamycin (Km), 40; tetracyclin (Tc), 35.
(§1) To test the optimal concentration of inducer, cumate, recombinant M. extorquens (cymR2) transformed with pCUM-gfp was grown to mid-log phase (0.8-1.0 units at OD600) at 30° C. followed by induction with cumate at different concentrations. Reporter gene expression was detectable 4 h post induction. Cumate induction was very sensitive since about 47% of reporter gene expression was obtained with 1 μg cumate/ml (FIG. 5). […] Optimum cumate concentration for effective induction of reporter gene expression was 15 μg/ml (ca. 0.1 mM).

cym and cmt operons = conditions: P. putida F1, regulated by cymR; cited from earlier work
repressor protein (cymR) = target: T1, repressor protein (cymR) (Pseudomonas putida, UniProt O33453); assay: cumate induction of gfp reporter gene expression in M. extorquens (cymR2) transformed with pCUM-gfp; assay type: cell-based, Pseudomonas putida F1
T1 construct: expressed in transfected cells; host or cells: Methylobacterium extorquens ATCC 55366, strain cymR2 (two cymR copies integrated by mini-Tn7 under PmxaF), carrying pCUM-gfp
Protocol: Detection of gene expression Detection of GFP was carried out by fluorescence microscopy, and quantified by using a SPECTRAFluor Plus (TECAN Austria Gmbh, GrodIg, Austria) under excitation and emission wavelengths of 485 and 508 nm, respectively. Concentration of GFP was calculated based on a linear relationship between concentration and fluorescence units determined using solutions of purified GFP (Qbiogene). The biomass (X) was determined by cell dry weight measurement of the samples (Moisture Analyzer MA 30, Sartorius).
as §1

T1 sequence (O33453 whole entry): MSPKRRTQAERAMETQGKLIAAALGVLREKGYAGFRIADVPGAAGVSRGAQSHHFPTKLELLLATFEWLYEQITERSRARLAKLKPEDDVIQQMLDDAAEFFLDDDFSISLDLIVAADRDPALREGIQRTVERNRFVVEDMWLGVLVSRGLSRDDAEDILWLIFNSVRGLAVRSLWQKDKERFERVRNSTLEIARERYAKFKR

SMILES: CC(C)c1ccc(C(=O)O)cc1 [cumate, p-isopropylbenzoate]
- effect on growth (M. extorquens (cymR2)): No growth difference
- induction of cym/cmt operon expression (cym and cmt operons): Induction is afforded
- cumate concentration giving maximum gene expression (repressor protein (cymR); FIG. 5, gfp expression): 15-30 μg cumate/ml
- time post induction at which reporter gene expression was detectable (repressor protein (cymR); cumate at different concentrations): 4 h
- optimum cumate concentration for effective induction of reporter gene expression (repressor protein (cymR); induced at OD600 0.8-1.0, 30° C.): 15 µg/mL
- optimum cumate concentration for effective induction of reporter gene expression (repressor protein (cymR); molar equivalent of 15 μg/ml): ca. 0.1 mM
- time post induction of maximum GFP expression (repressor protein (cymR); pCUM-GFP clones, FIG. 7a, cumate 15 μg/ml): 30 h

SMILES: Cc1ccc(C(C)C)cc1 [p-cymene, p-isopropyltoluene]
- induction of cym/cmt operon expression (cym and cmt operons): not
